Patent US7256185B1, “Control of selective estrogen receptor modulators” (Eastern Virginia Medical School, priority 1997, dated 2007)
Like-named read-outs stand apart in the source and are kept apart here.

Protocol: 1. Clomiphene is used alone at 100 mg/day for the treatment of endometriosis. […] Levonorgestrel at 75 mcg/day is then also administered.
2. Raloxifene at 500 mg/day and medroxprogesterone acetate at 12 mg/day were administrated to treat leiomyoma.
5. Clomiphene is used alone at 100 mg/day for the treatment of endometriosis. […] Danazol at 100 to 800 mg/day is then also administered.

[1] = clomiphene ZU isomer 50 mg/day and norgestimate 100 mcg/day coadministered
[2] = raloxifene 500 mg/day and medroxprogesterone acetate 12 mg/day administered together, leiomyoma

Question: With C#C[C@]1(OC(C)=O)CC[C@H]2[C@@H]3CCC4=CC(=NO)CC[C@@H]4[C@H]3CC[C@@]21CC (mixture of isomers) [norgestimate] as the compound, how does the serum estrogen [1] read?
Answer: remained at physiological levels

Question: With CCN(CC)CCOc1ccc(/C(=C(\Cl)c2ccccc2)c2ccccc2)cc1 (single isomer, unassigned) [Clomiphene ZU isomer] as the compound, how does the serum estrogen [1] read?
Answer: remained at physiological levels

Question: Which serum estrogen (danazol 100 to 800 mg/day added to clomiphene 100 mg/day after serum estrogen reached 500 pg/ml, endometriosis) does the source give for C#C[C@]1(O)CC[C@H]2[C@@H]3CCC4=Cc5oncc5C[C@]4(C)[C@H]3CC[C@@]21C [Danazol, danazol] here?
Answer: retreated to physiological value

Question: Which serum estrogen [2] does the source give for O=C(c1ccc(OCCN2CCCCC2)cc1)c1c(-c2ccc(O)cc2)sc2cc(O)ccc12 [Raloxifene] here?
Answer: remained at physiological levels

Question: Which serum estrogen [2] does the source give for CC(=O)O[C@]1(C(C)=O)CC[C@H]2[C@@H]3C[C@H](C)C4=CC(=O)CC[C@]4(C)[C@H]3CC[C@@]21C [medroxprogesterone acetate] here?
Answer: remained at physiological levels
